Experiments:
[1] = Oral bioavailability in rats (data on file); type: in vivo; settings: administered orally to rats
[2] = phase I clinical studies, humans; cited from earlier work
[3] = Assessment of oral pharmacokinetics / bioavailability in jugular vein cannulated Wistar rats; type: in vivo; settings: 10 mg/kg, Wistar rats (n=5), Mean
Description: Bioavailability of 1-(2-thien-2′-yl-2-oxo-ethyl)-3-(methanesulfonyl hydrazine carbonyl) pyridinium compound was checked using formulations as given in Table 2.
The assessment of oral pharmacokinetics was carried out. […] The blood samples were withdrawn at pre-determined time points; pre-dose (0.0 hr), 0.25, 0.5, 1, 2, 4, 6, 8, 12 and 24 hrs post dose. Plasma obtained at each time point was subjected to quantification of 1-(2-thien-2′-yl-2-oxo-ethyl)-3-(methanesulfonyl hydrazine carbonyl) pyridinium compound. LC-MS/MS method was used for the quantification of 1-(2-thien-2′-yl-2-oxo-ethyl)-3-(methanesulfonyl hydrazine carbonyl) pyridinium compound using an internal standard. The plasma samples were analyzed using solid phase extraction techniques in the calibration range of 0.500 ng/mL to 1000.000 ng/mL.
Data were presented with Mean±SD (standard deviation) and compared with 1-(2-thien-2′-yl-2-oxo-ethyl)-3-(methanesulfonyl hydrazine carbonyl) pyridinium compound PK data obtained after oral administration of solution of 1-(2-thien-2′-yl-2-oxo-ethyl)-3-(methanesulfonyl hydrazine carbonyl) pyridinium chloride in water under similar conditions.

[4] = clinical studies, administered orally; cited from earlier work
[5] = tested on: animal models of Type II diabetes; settings: cited from earlier work

| Substance | bioavailability [1] | oral bioavailability [2] | AUClast [3] | Cmax [3] | safety and tolerability [4] | effect on cardiomyopathy and nephropathy [5] |
| --- | --- | --- | --- | --- | --- | --- |
| 1-(2-thien-2′-yl-2-oxo-ethyl)-3-(methanesulfonyl hydrazine carbonyl) pyridinium bromide | very low | – | – | – | – | – |
| 1-(2-thien-2′-yl-2-oxo-ethyl)-3-(methanesulfonyl hydrazine carbonyl) pyridinium chloride | – | very low | 222.86 ng·h/mL | 85.764 ng/mL | safe and well tolerated | improve cardiomyopathy and nephropathy |
